Read-outs that look alike come from different tables or passages of the source.
Tests used:
Type in all cases: in vivo, human
[1] = Phase I clinical study Part 1, single administration, pharmacokinetics and safety; settings: phase 1 study
Protocol: Test Example 3-1 Phase I Clinical Study
All studies were conducted based on Good Clinical Practice (GCP). The phase I clinical study was composed of Part 1 to Part 7, and in Part 1, the safety, tolerability, and pharmacokinetics were confirmed when the fumaric acid cocrystal Form I crystal of the compound represented by Formula (I) was administered once and when it was administered repeatedly.
The subjects who were determined to be eligible by the screening examination were randomly assigned to either the active drug group (see the following table for the dose of the fumaric acid cocrystal Form I crystal of the compound represented by Formula (I)) or the placebo group on the day before the day of administration of the investigational new drug (Day −1). On Day 1, the investigational new drug (active drug or placebo) was administered once in the fasted state.

SARS-CoV-2 = settings: Phase 3 Part; for Time to resolution of five COVID-19 symptoms: Maximum value / Time to resolution of 12 COVID-19 symptoms: Maximum value / Time to resolution of 14 COVID-19 symptoms: Maximum value: +: includes censored data
Protocol: The primary endpoint of Phase 3 Part was the time to resolution of five COVID-19 symptoms in mild/moderate SARS-CoV-2-infected patients, and the efficacy was verified by evaluation of the five COVID-19 symptoms in four grades (0: none, 1: mild, 2: moderate, 3: severe) by the patients themselves.
The 750/250 mg group received 750 mg on Day 1 as a loading dose and 250 mg on Days 2 to 5 as a maintenance dose.
The primary efficacy endpoint of Phase 3 Part for mild/moderate SARS-CoV-2-infected patients was the time to resolution of the five COVID-19 symptoms.
Existing symptoms that existed before the onset of COVID-19 and were determined by the subject to be worsening at the baseline (pre-administration test) time point had to be improved […] from the severity at the baseline time point. • Severity at baseline was “severe”→“moderate”, “mild”, or “none” • Severity at baseline was “moderate”→“mild”, or “none” • Severity at baseline was “mild”→[…] “none” • Existing symptoms that existed before the onset of COVID-19 and were determined by the subject not to be worsening at the baseline (pre-administration test) time point had to be maintained or improved from the severity at the baseline time point. • Severity at baseline was “severe”->“severe”, “moderate”, “mild”, or “none” • Severity at baseline was “moderate”->“moderate”, “mild”, or “none” • Severity at baseline was “mild”→“mild”, or “none” • Regarding symptoms other than the above, that is, symptoms that were not present before the onset of COVID-19 and developed at or after the baseline (pre-administration test) time point, such symptoms had to be eliminated. • Severity at baseline was “severe”, “moderate”, or “mild”→“none”
As the key secondary analysis of the primary endpoint, the same analysis as the primary analysis was performed for the population of the mild/moderate SARS-CoV-2-infected patients in the ITT population.

[2] = Phase 2/3 study: frequency of adverse events; settings: for Adverse events leading to discontinuation of administration, causally related to the investigational new drug: recovering or recovered after discontinuation
[3] = ITT, onset to randomization less than 72 hours, 375/125 mg group
[4] = mild/moderate patients, ITT population, 375/125 mg group
[5] = mild/moderate patients, ITT population, 750/250 mg group
[6] = mild/moderate patients, ITT, onset to randomization less than 72 hours, 375/125 mg group
[7] = mild/moderate patients, ITT, onset to randomization less than 72 hours, 375/125 mg group, 336 cases analyzed
[8] = mild/moderate patients, ITT, onset to randomization less than 72 hours, 750/250 mg group
[9] = mild/moderate patients, ITT, onset to randomization less than 72 hours, 750/250 mg group, 330 cases analyzed

## Cn1cnc(Cn2c(=O)[nH]/c(=N\c3cc4cn(C)nc4cc3Cl)n(Cc3cc(F)c(F)cc3F)c2=O)n1 [(6E)-6-[(6-chloro-2-methyl-2H-indazol-5-yl)imino]-3-[(1-methyl-1H-1,2,4-triazol-3-yl)methyl]-1-[(2,4,5-trifluorophenyl)methyl]-1,3,5-triazinane-2,4-dione]
[1]
  serious adverse events: no serious adverse events for which a causal relationship cannot be denied were reported
SARS-CoV-2; ITT population, 375/125 mg group
  Time to resolution of the five symptoms of COVID-19 shortened as the median value compared with placebo group by: 10.6 h
SARS-CoV-2; [3]
  Time to resolution of 12 COVID-19 symptoms reduced compared to placebo group by a median of: 34.0 h
  Time to resolution of 14 COVID-19 symptoms reduced compared to placebo group by a median of: 44.1 h
  Time to resolution of the five COVID-19 symptoms shortened as the median compared with placebo group by: 24.3 h
SARS-CoV-2; mild/moderate patients, ITT population
  Time to resolution of the five symptoms of COVID-19, significance vs placebo: no significant difference was observed
SARS-CoV-2; [4]
  Time to resolution of five COVID-19 symptoms: 25% point: 104.3, — hour
  Time to resolution of five COVID-19 symptoms: Difference of RMST (vs placebo): -5.6 h
  Time to resolution of five COVID-19 symptoms: Difference of median value (vs placebo): -10.6 h
  Time to resolution of five COVID-19 symptoms: Kaplan-Meier median value: 189.7 h
  Time to resolution of five COVID-19 symptoms: Minimum value: 2.4 h
  Time to resolution of five COVID-19 symptoms: Number of events (value in parentheses): (73.0)
  Time to resolution of five COVID-19 symptoms: Restricted mean survival time during 21 days (RMST): 254.4 h
  Time to resolution of five COVID-19 symptoms: Maximum value: 493.3 h
SARS-CoV-2; mild/moderate patients, ITT population, 375/125 mg group, 582 cases analyzed
  Time to resolution of five COVID-19 symptoms: Number of events: 425
SARS-CoV-2; [5]
  Time to resolution of five COVID-19 symptoms: 25% point: 99.2 h
  Time to resolution of five COVID-19 symptoms: 75% point: 434.8 h
  Time to resolution of five COVID-19 symptoms: Difference of RMST (vs placebo): -14.9 h
  Time to resolution of five COVID-19 symptoms: Difference of median value (vs placebo): -23.0 h
  Time to resolution of five COVID-19 symptoms: Kaplan-Meier median value: 177.3 h
  Time to resolution of five COVID-19 symptoms: Minimum value: 9.4 h
  Time to resolution of five COVID-19 symptoms: Number of events (value in parentheses): (75.3)
  Time to resolution of five COVID-19 symptoms: Restricted mean survival time during 21 days (RMST): 245.1 h
  Time to resolution of five COVID-19 symptoms: Maximum value: 493.1 h
SARS-CoV-2; mild/moderate patients, ITT population, 750/250 mg group, 575 cases analyzed
  Time to resolution of five COVID-19 symptoms: Number of events: 433
SARS-CoV-2; [6]
  Time to resolution of 12 COVID-19 symptoms: 25% point: 105.6, — hour
  Time to resolution of 12 COVID-19 symptoms: Difference of RMST (vs placebo): -16.9 h
  Time to resolution of 12 COVID-19 symptoms: Difference of median value (vs placebo): -34.0 h
  Time to resolution of 12 COVID-19 symptoms: Kaplan-Meier median value: 179.2 h
  Time to resolution of 12 COVID-19 symptoms: Minimum value: 2.4 h
  Time to resolution of 12 COVID-19 symptoms: Number of events (value in parentheses): (72.6)
  Time to resolution of 12 COVID-19 symptoms: Restricted mean survival time during 21 days (RMST): 253.9 h
  Time to resolution of 14 COVID-19 symptoms: 25% point: 105.6, — hour
  Time to resolution of 14 COVID-19 symptoms: Difference of RMST (vs placebo): -20.1 h
  Time to resolution of 14 COVID-19 symptoms: Difference of median value (vs placebo): -44.1 h
  Time to resolution of 14 COVID-19 symptoms: Kaplan-Meier median value: 187.8 h
  Time to resolution of 14 COVID-19 symptoms: Minimum value: 2.4 h
  Time to resolution of 14 COVID-19 symptoms: Number of events (value in parentheses): (71.7)
  Time to resolution of 14 COVID-19 symptoms: Restricted mean survival time during 21 days (RMST): 257.9 h
  Time to resolution of five COVID-19 symptoms: 25% point: 99.5 h
  Time to resolution of five COVID-19 symptoms: 75% point: 424.8 h
  Time to resolution of five COVID-19 symptoms: Difference of RMST (vs placebo): -19.4 h
  Time to resolution of five COVID-19 symptoms: Difference of median value (vs placebo): -24.3 h
  Time to resolution of five COVID-19 symptoms: Kaplan-Meier median value: 167.9 h
  Time to resolution of five COVID-19 symptoms: Minimum value: 2.4 h
  Time to resolution of five COVID-19 symptoms: Number of events (value in parentheses): (75.6)
  Time to resolution of five COVID-19 symptoms: Restricted mean survival time during 21 days (RMST): 241.6 h
  Time to resolution of 12 COVID-19 symptoms: Maximum value: 489.1 h
  Time to resolution of 14 COVID-19 symptoms: Maximum value: 489.1 h
  Time to resolution of five COVID-19 symptoms: Maximum value: 489.1 h
SARS-CoV-2; [7]
  Time to resolution of 12 COVID-19 symptoms: Number of events: 244
  Time to resolution of 14 COVID-19 symptoms: Number of events: 241
  Time to resolution of five COVID-19 symptoms: Number of events: 254
SARS-CoV-2; [8]
  Time to resolution of 12 COVID-19 symptoms: 25% point: 114.2 h
  Time to resolution of 12 COVID-19 symptoms: 75% point: 422.7 h
  Time to resolution of 12 COVID-19 symptoms: Difference of RMST (vs placebo): -20.8 h
  Time to resolution of 12 COVID-19 symptoms: Difference of median value (vs placebo): -28.3 h
  Time to resolution of 12 COVID-19 symptoms: Kaplan-Meier median value: 184.9 h
  Time to resolution of 12 COVID-19 symptoms: Minimum value: 9.4 h
  Time to resolution of 12 COVID-19 symptoms: Number of events (value in parentheses): (78.2)
  Time to resolution of 12 COVID-19 symptoms: Restricted mean survival time during 21 days (RMST): 249.9 h
  Time to resolution of 14 COVID-19 symptoms: 25% point: 117.1 h
  Time to resolution of 14 COVID-19 symptoms: 75% point: 431.6 h
  Time to resolution of 14 COVID-19 symptoms: Difference of RMST (vs placebo): -22.0 h
  Time to resolution of 14 COVID-19 symptoms: Difference of median value (vs placebo): -41.5 h
  Time to resolution of 14 COVID-19 symptoms: Kaplan-Meier median value: 190.3 h
  Time to resolution of 14 COVID-19 symptoms: Minimum value: 9.4 h
  Time to resolution of 14 COVID-19 symptoms: Number of events (value in parentheses): (77.3)
  Time to resolution of 14 COVID-19 symptoms: Restricted mean survival time during 21 days (RMST): 256.0 h
  Time to resolution of five COVID-19 symptoms: 25% point: 96.7 h
  Time to resolution of five COVID-19 symptoms: 75% point: 360.9 h
  Time to resolution of five COVID-19 symptoms: Difference of RMST (vs placebo): -26.1 h
  Time to resolution of five COVID-19 symptoms: Difference of median value (vs placebo): -21.0 h
  Time to resolution of five COVID-19 symptoms: Kaplan-Meier median value: 171.2 h
  Time to resolution of five COVID-19 symptoms: Minimum value: 9.4 h
  Time to resolution of five COVID-19 symptoms: Number of events (value in parentheses): (79.6)
  Time to resolution of five COVID-19 symptoms: Restricted mean survival time during 21 days (RMST): 234.8 h
  Time to resolution of 12 COVID-19 symptoms: Maximum value: 490.1 h
  Time to resolution of 14 COVID-19 symptoms: Maximum value: 490.1 h
  Time to resolution of five COVID-19 symptoms: Maximum value: 490.1 h
SARS-CoV-2; mild/moderate patients, ITT, onset to randomization less than 72 hours, 750/250 mg group, 329 cases analyzed
  Time to resolution of five COVID-19 symptoms: Number of events: 262
SARS-CoV-2; [9]
  Time to resolution of 12 COVID-19 symptoms: Number of events: 258
  Time to resolution of 14 COVID-19 symptoms: Number of events: 255
[2]; Phase 2a Part
  Adverse events leading to deaths: no adverse events leading to deaths
  Deaths, serious adverse events, adverse events leading to discontinuation of administration: no deaths, serious adverse events, or adverse events leading to discontinuation of administration
[2]; Phase 2a Part, 375/125 mg group, both causally related to the investigational new drug
  Adverse events leading to the discontinuation of administration: Two adverse events leading to the discontinuation of administration were observed
[2]; Phase 2a Part, active drug group
  serious adverse events: not in the active drug group
[2]; Phase 3 Part
  Adverse events leading to deaths: no adverse events leading to deaths
[2]; Phase 3 Part, 375/125 mg group, no causal relationship with the investigational new drug
  Serious adverse event: observed in one case
[2]; Phase 3 Part, 375/125 mg group
  Adverse events leading to discontinuation of administration, causally related to the investigational new drug: eczema and emesis
[2]; Phase 3 Part, 750/250 mg group
  Adverse events leading to discontinuation of administration, causally related to the investigational new drug: rash (2 cases)
